Measured values reported in the NIST ThermoML archive (doi:10.1016/j.fluid.2006.06.005).
Numbers after ± are expanded uncertainties.

settings: 323.15 K; Liquid

vapor or sublimation pressure [kPa]	Structure (SMILES)
7.72 ± 0.28	CC(=O)O [acetic acid]
55.61 ± 0.52	CO [methanol]
79.21 ± 0.71	COC(C)=O [methyl ethanoate]
12.35 ± 0.17	O [water]
